Species: Rattus norvegicus
Experiment: Open TG-GATES - Regimen: Daily Repeat
Type: toxicity, organism-based, Sprague-Dawley
Set-up: regimen Daily Repeat, gender Male, age 6 weeks
Settings: in vivo, po, 100 mg/kg, route gavage, dose level Low; for APTT / Bas / Eos / Fbg / Hb / Ht / Lym / MCH / MCHC / MCV / Mono / Neu / PT / Plat / RBC / Ret / WBC: tissue Blood; for KIDNEY_L / KIDNEY_R / KIDNEY_TOTAL: tissue Kidney; for LIVER: tissue Liver; for A/G / ALP / ALT / AST / BUN / CRE / Ca / Cl / DBIL / GLC / IP / K / LDH / Na / PL / RALB / TBIL / TC / TG / TP / gamma-GTP: tissue Plasma

CC(=O)[C@@]1(O)CC[C@H]2[C@@H]3C=C(Cl)C4=CC(=O)CC[C@]4(C)[C@H]3CC[C@@]21C [CHLORMADINONE]
TERMINAL_BW (72 h, time 3 day): 229.4 g
APTT (72 h, time 3 day): 26.3 s
Bas (72 h, time 3 day): 0%
Eos (72 h, time 3 day): 1%
Fbg (72 h, time 3 day): 311.6 mg/dL
Hb (72 h, time 3 day): 14.1 g/dL
Ht (72 h, time 3 day): 42.6%
Lym (72 h, time 3 day): 80.4%
MCH (72 h, time 3 day): 20.1 pg
MCHC (72 h, time 3 day): 33.1%
MCV (72 h, time 3 day): 60.6 fL
Mono (72 h, time 3 day): 2.4%
Neu (72 h, time 3 day): 15.6%
PT (72 h, time 3 day): 15.3 s
Plat (72 h, time 3 day): 122.1 x10_4/uL
RBC (72 h, time 3 day): 702.6 x10_4/ul
Ret (72 h, time 3 day): 5.8%
WBC (72 h, time 3 day): 113 x10_2/uL
KIDNEY_L (72 h, time 3 day): 1 g
KIDNEY_R (72 h, time 3 day): 1 g
KIDNEY_TOTAL (72 h, time 3 day): 2 g
LIVER (72 h, time 3 day): 10.5 g
A/G (72 h, time 3 day): 1.3
ALP (72 h, time 3 day): 1589 IU/L
ALT (72 h, time 3 day): 54 IU/L
AST (72 h, time 3 day): 72.8 IU/L
BUN (72 h, time 3 day): 15.8 mg/dL
CRE (72 h, time 3 day): 0.2 mg/dL
Ca (72 h, time 3 day): 10.7 mg/dL
Cl (72 h, time 3 day): 106.2 meq/L
DBIL (72 h, time 3 day): 0 mg/dL
GLC (72 h, time 3 day): 192.4 mg/dL
IP (72 h, time 3 day): 7.4 mg/dL
K (72 h, time 3 day): 4.5 meq/L
LDH (72 h, time 3 day): 171.4 IU/L
Na (72 h, time 3 day): 141.6 meq/L
PL (72 h, time 3 day): 160.2 mg/dL
RALB (72 h, time 3 day): 3.1 g/dL
TBIL (72 h, time 3 day): 0.006 mg/dL
TC (72 h, time 3 day): 74 mg/dL
TG (72 h, time 3 day): 129.4 mg/dL
TP (72 h, time 3 day): 5.5 g/dL
gamma-GTP (72 h, time 3 day): 1.6 IU/L
TERMINAL_BW ([…], time 7 day): 252.1 g
TERMINAL_BW ([…], time 14 day): 293.5 g
TERMINAL_BW ([…], time 28 day): 362.8 g
APTT ([…], time 7 day): 27.7 s
Bas ([…], time 7 day): 0%
Eos ([…], time 7 day): 1%
Fbg ([…], time 7 day): 343.2 mg/dL
Hb ([…], time 7 day): 14.5 g/dL
Ht ([…], time 7 day): 43.2%
Lym ([…], time 7 day): 84%
MCH ([…], time 7 day): 20.2 pg
MCHC ([…], time 7 day): 33.6%
MCV ([…], time 7 day): 60.1 fL
Mono ([…], time 7 day): 2.2%
Neu ([…], time 7 day): 12%
PT ([…], time 7 day): 15.2 s
Plat ([…], time 7 day): 133.1 x10_4/uL
RBC ([…], time 7 day): 720.2 x10_4/ul
Ret ([…], time 7 day): 4.2%
WBC ([…], time 7 day): 118.1 x10_2/uL
APTT ([…], time 14 day): 27.9 s
Bas ([…], time 14 day): 0%
Eos ([…], time 14 day): 0.8%
Fbg ([…], time 14 day): 327.6 mg/dL
Hb ([…], time 14 day): 14.8 g/dL
Ht ([…], time 14 day): 43.9%
Lym ([…], time 14 day): 82%
MCH ([…], time 14 day): 19.5 pg
MCHC ([…], time 14 day): 33.8%
MCV ([…], time 14 day): 57.6 fL
Mono ([…], time 14 day): 2%
Neu ([…], time 14 day): 14.6%
PT ([…], time 14 day): 15.2 s
Plat ([…], time 14 day): 103.8 x10_4/uL
RBC ([…], time 14 day): 762.8 x10_4/ul
Ret ([…], time 14 day): 3.6%
WBC ([…], time 14 day): 100.2 x10_2/uL
APTT ([…], time 28 day): 27.1 s
Bas ([…], time 28 day): 0%
Eos ([…], time 28 day): 1%
Fbg ([…], time 28 day): 303.4 mg/dL
Hb ([…], time 28 day): 15.5 g/dL
Ht ([…], time 28 day): 45.1%
Lym ([…], time 28 day): 84.8%
MCH ([…], time 28 day): 19.2 pg
MCHC ([…], time 28 day): 34.4%
MCV ([…], time 28 day): 55.7 fL
Mono ([…], time 28 day): 1.6%
Neu ([…], time 28 day): 11.4%
PT ([…], time 28 day): 14.9 s
Plat ([…], time 28 day): 95 x10_4/uL
RBC ([…], time 28 day): 809 x10_4/ul
Ret ([…], time 28 day): 2.2%
WBC ([…], time 28 day): 106.1 x10_2/uL
KIDNEY_L ([…], time 7 day): 1.1 g
KIDNEY_R ([…], time 7 day): 1.1 g
KIDNEY_TOTAL ([…], time 7 day): 2.2 g
KIDNEY_L ([…], time 14 day): 1.1 g
KIDNEY_R ([…], time 14 day): 1.1 g
KIDNEY_TOTAL ([…], time 14 day): 2.3 g
KIDNEY_L ([…], time 28 day): 1.3 g
KIDNEY_R ([…], time 28 day): 1.3 g
KIDNEY_TOTAL ([…], time 28 day): 2.5 g
LIVER ([…], time 7 day): 11.1 g
LIVER ([…], time 14 day): 12 g
LIVER ([…], time 28 day): 14.2 g
A/G ([…], time 7 day): 1.2
ALP ([…], time 7 day): 1694.8 IU/L
ALT ([…], time 7 day): 46.4 IU/L
AST ([…], time 7 day): 74.6 IU/L
BUN ([…], time 7 day): 16.2 mg/dL
CRE ([…], time 7 day): 0.2 mg/dL
Ca ([…], time 7 day): 10.7 mg/dL
Cl ([…], time 7 day): 106.8 meq/L
DBIL ([…], time 7 day): 0 mg/dL
GLC ([…], time 7 day): 185.4 mg/dL
IP ([…], time 7 day): 7.2 mg/dL
K ([…], time 7 day): 4.2 meq/L
LDH ([…], time 7 day): 148.4 IU/L
Na ([…], time 7 day): 140.6 meq/L
PL ([…], time 7 day): 155.2 mg/dL
RALB ([…], time 7 day): 3.1 g/dL
TBIL ([…], time 7 day): 0.002 mg/dL
TC ([…], time 7 day): 67.4 mg/dL
TG ([…], time 7 day): 200.6 mg/dL
TP ([…], time 7 day): 5.7 g/dL
gamma-GTP ([…], time 7 day): 2 IU/L
A/G ([…], time 14 day): 1.2
ALP ([…], time 14 day): 1379.4 IU/L
ALT ([…], time 14 day): 44.8 IU/L
AST ([…], time 14 day): 72.8 IU/L
BUN ([…], time 14 day): 17.2 mg/dL
CRE ([…], time 14 day): 0.2 mg/dL
Ca ([…], time 14 day): 10.3 mg/dL
Cl ([…], time 14 day): 107.8 meq/L
DBIL ([…], time 14 day): 0 mg/dL
GLC ([…], time 14 day): 183.8 mg/dL
IP ([…], time 14 day): 6.5 mg/dL
K ([…], time 14 day): 4.2 meq/L
LDH ([…], time 14 day): 144.4 IU/L
Na ([…], time 14 day): 142.2 meq/L
PL ([…], time 14 day): 142.6 mg/dL
RALB ([…], time 14 day): 3.1 g/dL
TBIL ([…], time 14 day): 0.006 mg/dL
TC ([…], time 14 day): 69.2 mg/dL
TG ([…], time 14 day): 142.2 mg/dL
TP ([…], time 14 day): 5.7 g/dL
gamma-GTP ([…], time 14 day): 2 IU/L
A/G ([…], time 28 day): 1.1
ALP ([…], time 28 day): 1170.6 IU/L
ALT ([…], time 28 day): 46.8 IU/L
AST ([…], time 28 day): 66.6 IU/L
BUN ([…], time 28 day): 18.8 mg/dL
CRE ([…], time 28 day): 0.2 mg/dL
Ca ([…], time 28 day): 10.5 mg/dL
Cl ([…], time 28 day): 105.8 meq/L
DBIL ([…], time 28 day): 0 mg/dL
GLC ([…], time 28 day): 192.8 mg/dL
IP ([…], time 28 day): 6.5 mg/dL
K ([…], time 28 day): 4.2 meq/L
LDH ([…], time 28 day): 142 IU/L
Na ([…], time 28 day): 142 meq/L
PL ([…], time 28 day): 155.4 mg/dL
RALB ([…], time 28 day): 3.1 g/dL
TBIL ([…], time 28 day): 0.006 mg/dL
TC ([…], time 28 day): 73.2 mg/dL
TG ([…], time 28 day): 178 mg/dL
TP ([…], time 28 day): 6 g/dL
gamma-GTP ([…], time 28 day): 2.2 IU/L

From ChEMBL document CHEMBL3885861, “Open TG-GATES”
